Tested on: small cell lung cancer cell line NCI-H209
Experiment: ADC combined with PARP inhibitor, cell viability
Assay type: cell-based, human
Settings: olaparib 10 nM to 10 uM, six days
Protocol: Briefly, the small cell lung cancer cell line NCI-H209, which expresses ˜10,000 copies of SEZ6L2 on the cell surface, was seeded onto 96 well plate at 5000 cells/well Immediately after seeding, 10 pM of 3E2-PBD or isotype control hIgG-PBD (bearing a drug antibody ratio (DAR) of 1.7 and 2.5 respectively) were added to the wells in complete culture medium. A PARP inhibitor (olaparib) was then added to these wells such that the final concentration ranged from 10 nM to 10 uM. The PARP inhibitor was also tested on cells without an ADC. Each treatment was replicated in 2 wells and after six days, the PARP inhibitor plus modulator-mediated PBD cytotoxicity was assessed by quantifying the remaining number of live cells using Cell Titer Glo™. Cell viability was graphed by Prism™ using ratio of cell viability of test conditions to that of control wells treated with growth medium only.

## O=C(c1cc(Cc2n[nH]c(=O)c3ccccc23)ccc1F)N1CCN(C(=O)C2CC2)CC1 [olaparib, reference compound]
  percent viable cells, PARP inhibitor alone: responded in a dose dependent manner
